Data published in ChEMBL document CHEMBL3044652, “Synthesis of novel 2-alkyl-4-substituted-amino-pyrazolo[3,4-d]pyrimidines as new leads for anti-bacterial and anti-cancer activity” (2013).

What was measured:
Format in all cases: functional
[1] = test system: Bacillus subtilis; assay: Antibacterial activity against Bacillus subtilis NCIM 2545 at 20 ug/ml after 24 hr by agar diffusion method; details: NCIM 2545, 24 h, read-out: IZ
[2] = test system: G-361; assay: Cytotoxicity against Homo sapiens (human) G361 cells assessed as cell growth at 10^-5 M by SRB assay relative to control; details: read-out: Activity
[3] = test system: Staphylococcus epidermidis; assay: Antibacterial activity against Staphylococcus epidermidis NCIM 2493 at 20 ug/ml after 24 hr by agar diffusion method; details: NCIM 2493, 24 h, read-out: IZ
[4] = test system: Staphylococcus aureus; assay: Antibacterial activity against Staphylococcus aureus NCIM 5021 at 20 ug/ml after 24 hr by agar diffusion method; details: NCIM 5021, 24 h, read-out: IZ
[5] = test system: Escherichia coli; assay: Antibacterial activity against Escherichia coli NCIM 2803 at 20 ug/ml after 24 hr by agar diffusion method; details: NCIM 2803, 24 h, read-out: IZ
[6] = test system: G-361; assay: Cytotoxicity against Homo sapiens (human) G361 cells assessed as cell growth at 10^-7 M by SRB assay relative to control; details: read-out: Activity
[7] = test system: G-361; assay: Cytotoxicity against Homo sapiens (human) G361 cells assessed as cell growth at 10^-6 M by SRB assay relative to control; details: read-out: Activity
[8] = test system: G-361; assay: Cytotoxicity against Homo sapiens (human) G361 cells by SRB assay
[9] = test system: G-361; assay: Cytotoxicity against Homo sapiens (human) G361 cells assessed as cell growth at 10^-4 M by SRB assay relative to control; details: read-out: Activity
[10] = test system: Staphylococcus epidermidis; assay: Antibacterial activity against Staphylococcus epidermidis NCIM 2493 at 10 ug/ml after 24 hr by agar diffusion method; details: NCIM 2493, 24 h, read-out: IZ
[11] = test system: Escherichia coli; assay: Antibacterial activity against Escherichia coli NCIM 2803 at 10 ug/ml after 24 hr by agar diffusion method; details: NCIM 2803, 24 h, read-out: IZ
[12] = test system: Staphylococcus aureus; assay: Antibacterial activity against Staphylococcus aureus NCIM 5021 at 10 ug/ml after 24 hr by agar diffusion method; details: NCIM 5021, 24 h, read-out: IZ
[13] = test system: Bacillus subtilis; assay: Antibacterial activity against Bacillus subtilis NCIM 2545 at 10 ug/ml after 24 hr by agar diffusion method; details: NCIM 2545, 24 h, read-out: IZ

Structure (SMILES)	zone of inhibition at 20 µg/mL [1]	growth at 10 µM [2]	zone of inhibition at 20 µg/mL [3]	zone of inhibition at 20 µg/mL [4]	zone of inhibition at 20 µg/mL [5]	growth at 0.1 µM [6]	growth at 1 µM [7]	GI50 [8]	LC50 [8]	TGI [8]	growth at 100 µM [9]	zone of inhibition at 10 µg/mL [10]	zone of inhibition at 10 µg/mL [11]	zone of inhibition at 10 µg/mL [12]	zone of inhibition at 10 µg/mL [13]
CCCCNc1ncnc2c1cnn2-c1ccccc1	13 mm	43.4%	13.3 mm	13.3 mm	13.6 mm	100%	90.8%	2.1 µM	> 100 µM	37 µM	-4.5%				
CCCCNc1nc(C(C)C)nc2c1cnn2-c1ccccc1	12.8 mm	100%	14.1 mm	14.4 mm	13.3 mm	100%	100%	> 100 µM	> 100 µM	> 100 µM	45.4%	11 mm	0 mm	11 mm	0 mm
CC(C)c1nc(N2CCOCC2)c2cnn(-c3ccccc3)c2n1	14.4 mm	77.6%	14.3 mm	14.2 mm	14.6 mm	100%	92.5%	2.6 µM	> 100 µM	> 100 µM	6.9%	11 mm	10.6 mm	10.3 mm	11.3 mm
CCCCNc1nc(C)nc2c1cnn2-c1ccccc1	13.8 mm	100%	14.5 mm	14.6 mm	14.4 mm	100%	100%	2.4 µM	> 100 µM	> 100 µM	-30%	11.1 mm	11 mm	11.3 mm	0 mm
CCCNc1ncnc2c1cnn2-c1ccccc1	13.2 mm	99.7%	13.3 mm	12.7 mm	13.2 mm	100%	100%	> 100 µM	> 100 µM	> 100 µM	64.8%				
CC1(C)S[C@@H]2[C@H](NC(=O)[C@H](N)c3ccc(O)cc3)C(=O)N2[C@H]1C(=O)O [AMOXICILLIN]	19 mm		16.6 mm	17.3 mm	18.7 mm							13 mm	15.5 mm	16.6 mm	16.3 mm
